# Data reported in ChEMBL document CHEMBL1177844 (Eur J Med Chem, 2010).
# Assay: Inhibition of ROCK
row,pIC50,Structure (SMILES)
1,6.46,CCCN1CCC(Nc2cccc3cnccc23)CC1
2,7.19,Clc1ccc(CN2CCC(Nc3cccc4cnccc34)C2)cc1 (stereo not drawn)
3,6.3,O=C(Nc1ccc2[nH]ncc2c1)C1CCCCC1
4,7.15,c1cc(N[C@H]2CC[C@H](NC3CC3)CC2)c2ccncc2c1
5,6.68,Clc1ccccc1CN1CCCC(Nc2cccc3cnccc23)C1 (stereo not drawn)
6,6.66,O=C(NCc1ccc(Cl)cc1Cl)Nc1ccc2[nH]ncc2c1
7,6.63,Nc1ccc(CN2CCC(Nc3cccc4cnccc34)C2)cc1 (stereo not drawn)
8,7.89,Clc1ccccc1CN1CCCC(Nc2ccc3[nH]ncc3c2)C1 (stereo not drawn)
9,7.1,COc1cc(CN2CCCC(Nc3ccc4[nH]ncc4c3)C2)cc(OC)c1 (stereo not drawn)
10,7.96,c1c[nH]c(CN2CCCC(Nc3ccc4[nH]ncc4c3)C2)c1 (stereo not drawn)
11,6.05,O=C(CC1CCCCC1)Nc1ccc2[nH]ncc2c1
12,6.36,Clc1ccccc1CN1CCC(Nc2ccc3[nH]ncc3c2)CC1
13,7.19,Clc1cccc(CN2CCC(Nc3cccc4cnccc34)C2)c1 (stereo not drawn)
14,6,O=C(COc1c(Cl)cccc1Cl)Nc1ccc2[nH]ncc2c1
15,7,c1cc2[nH]ncc2cc1NC1CCNC1 (stereo not drawn)
16,7.07,O=C(NCc1c(F)cccc1F)Nc1ccc2[nH]ncc2c1
17,6.24,c1ccc(CCN[C@H]2CC[C@@H](Nc3cccc4cnccc34)CC2)cc1
18,6.59,O=C(NCc1ccccc1)Nc1ccc2[nH]ncc2c1
19,6.74,c1cc(N[C@H]2CC[C@@H](NC3CC3)CC2)c2ccncc2c1
20,6.4,Fc1cc2[nH]ncc2cc1NC1CCCN(Cc2ccccc2)C1 (stereo not drawn)
21,7.46,Nc1cccc(CN2CCCC(Nc3ccc4[nH]ncc4c3)C2)c1 (stereo not drawn)
22,6.11,CCCN1CCCC(Nc2ccc3[nH]ncc3c2)C1 (stereo not drawn)
23,7.06,O=[N+]([O-])c1ccc(CN2CCCC(Nc3ccc4[nH]ncc4c3)C2)cc1 (stereo not drawn)

row,pIC50,Structure (SMILES)
1,6.52,c1cc2[nH]ncc2cc1NC1CCNCC1
2,6.7,CNC1CCC(Nc2cccc3cnccc23)CC1 (stereo not drawn)
3,7.49,c1ccc(CN2CCC(Nc3ccc4[nH]ncc4c3)C2)cc1 (stereo not drawn)
4,7.35,Clc1ccccc1CN1CCC(Nc2ccc3[nH]ncc3c2)C1 (stereo not drawn)
5,6.58,Clc1cccc(CN2CCCC(Nc3cccc4cnccc34)C2)c1 (stereo not drawn)
6,6.82,Cc1n[nH]c2ccc(NC3CCCN(Cc4ccccc4)C3)cc12 (stereo not drawn)
7,6.62,c1ccc(CN2CCCC(Nc3ccc4[nH]ncc4c3)C2)nc1 (stereo not drawn)
8,6.68,CC(C)CN1CCC(Nc2cccc3cnccc23)CC1
9,8.05,Cc1ccc(CN2CCCC(Nc3ccc4[nH]ncc4c3)C2)cc1 (stereo not drawn)
10,6.69,Nc1ccccc1CN1CCC(Nc2cccc3cnccc23)C1 (stereo not drawn)
11,6.74,CCCN[C@H]1CC[C@H](Nc2cccc3cnccc23)CC1
12,6.54,Clc1cccc(CN2CCC(Nc3ccc4[nH]ncc4c3)CC2)c1
13,7.07,Nc1ccccc1CN1CCCC(Nc2ccc3[nH]ncc3c2)C1 (stereo not drawn)
14,6.47,CC(C)CCN1CCCC(Nc2ccc3[nH]ncc3c2)C1 (stereo not drawn)
15,6.28,c1ccc(CN[C@H]2CC[C@H](Nc3ccc4[nH]ncc4c3)CC2)cc1
16,7,CC(C)CCCN1CCCC(Nc2cccc3cnccc23)C1 (stereo not drawn)
17,7.7,O=C(NCc1c(Cl)cccc1Cl)Nc1ccc2[nH]ncc2c1
18,6.7,c1ccc(CN2CCCC(Nc3cccc4cnccc34)C2)cc1 (stereo not drawn)
19,7.12,Fc1cccc(F)c1CN1CCC(Nc2cccc3cnccc23)C1 (stereo not drawn)
20,6.85,c1ccc(CN2CCC(Nc3cccc4cnccc34)CC2)cc1
21,7,c1ccc(CN2CCC(Oc3ccc4[nH]ncc4c3)CC2)cc1
22,7.96,Clc1ccc(CN2CCCC(Nc3ccc4[nH]ncc4c3)C2)cc1 (stereo not drawn)
23,5.1,CN(CCNc1ccc2[nH]ncc2c1)Cc1ccccc1

row,pIC50,Structure (SMILES)
1,6.49,c1ccc(CN[C@H]2CC[C@@H](Nc3ccc4[nH]ncc4c3)CC2)cc1
2,8,Nc1ccc(CN2CCCC(Nc3ccc4[nH]ncc4c3)C2)cc1 (stereo not drawn)
3,6.56,Nc1cccc(CN2CCC(Nc3cccc4cnccc34)C2)c1 (stereo not drawn)
4,7.7,c1ccc(CN2CCCC(Nc3ccc4[nH]ncc4c3)C2)cc1 (stereo not drawn)
5,7.8,COc1ccc(CN2CCCC(Nc3ccc4[nH]ncc4c3)C2)cc1 (stereo not drawn)
6,6.54,Clc1ccc(CN2CCC(Nc3ccc4[nH]ncc4c3)CC2)cc1
7,6.15,CCN1CCC(Nc2ccc3[nH]ncc3c2)CC1
8,6.3,O=C(COc1c(Cl)cc(F)cc1Cl)Nc1ccc2[nH]ncc2c1
9,6.74,CCCN[C@H]1CC[C@@H](Nc2cccc3cnccc23)CC1
10,7.72,Clc1cccc(CN2CCCC(Nc3ccc4[nH]ncc4c3)C2)c1 (stereo not drawn)
11,7,Clc1ccccc1CN1CCC(Nc2cccc3cnccc23)C1 (stereo not drawn)
12,6.74,c1coc(CN2CCCC(Nc3ccc4[nH]ncc4c3)C2)c1 (stereo not drawn)
13,8,Fc1ccc(CN2CCCC(Nc3ccc4[nH]ncc4c3)C2)cc1F (stereo not drawn)
14,6.27,O=C(NC1CCN(Cc2ccccc2)CC1)c1ccc2[nH]ncc2c1
15,7.02,Fc1ccc(CN2CCC(Nc3cccc4cnccc34)C2)cc1 (stereo not drawn)
16,6.87,O=C(Nc1ccc2[nH]ncc2c1)C1CCN(Cc2ccccc2)CC1
17,7.74,O=C(Nc1ccc2[nH]ncc2c1)C1CCCN(Cc2ccccc2)C1 (stereo not drawn)
18,7.6,Fc1ccc(CN2CCCC(Nc3ccc4[nH]ncc4c3)C2)cc1 (stereo not drawn)
19,7.14,c1cncc(CN2CCCC(Nc3ccc4[nH]ncc4c3)C2)c1 (stereo not drawn)
20,8,c1ccc(CN2CCCC(Oc3ccc4[nH]ncc4c3)C2)cc1 (stereo not drawn)
21,6.39,c1ccc(CCN[C@H]2CC[C@H](Nc3cccc4cnccc34)CC2)cc1
22,6.57,CC(C)CCN1CCCC(Nc2cccc3cnccc23)C1 (stereo not drawn)
